The test system of test [1] is α-amylase. The test can be described thus: Native electrophoretic α-amylase isoenzyme pattern (PAGE). Particulars: standard enzyme treated with 100 µg/mL. The test is classed as biochemical. As to the method:
(§1) The relative mobility (Rf), band quantity (Qty) and band percent (B%) of the electrophoretically detected isoenzyme types on the PAGE plate were determined using the Quantity One software program (version 4.6.2). The equation proposed by Nei and Li[39] was used to calculate the percentages of similarity index (SI%) and physiological difference (Diff%).

Test [2] relates to α-glucosidase. Briefly: SDS-PAGE electrophoretic α-glucosidase pattern. The following applies: 100 µg/mL. The test is classed as biochemical. As to the method:
as §1

For test [3], the system named is α-amylase. Briefly: α-Amylase enzyme inhibition assay. The test is classed as biochemical. On the procedure:
(§2) All in vitro biological activities of the limonoids-rich extract and the isolated compounds were assayed in triplicate at three different concentrations (50, 100, and 200 µg/mL).
(§3) The IC50 of each tested sample was determined by plotting a curve using a series of sample concentrations against the percent of enzyme inhibition.

Test [4] has as its system α-glucosidase. The test can be described thus: α-Glucosidase enzyme inhibition assay. The format is biochemical. On the procedure:
as §2, §3

Test [5] can be described thus: Nitric oxide (NO) radical scavenging activity (Griess Illosvory reagent). On the procedure: as §2
The nitric oxide (NO) radical scavenging activity was estimated by the reaction with Griess Illosvory reagent based on the method proposed by Chakraborthy[34]. The NO scavenging capacities of the samples were compared with that of ascorbic acid. The percent inhibition of the NO radical was calculated. The IC50 of each tested sample was determined by plotting a curve using a series of sample concentrations against the percent of NO inhibition.

Test [6] can be described thus: Total antioxidant capacity (TAC), method of Prieto et al. On the procedure: as §2
The method proposed by Prieto et al.[30] was used to determine the total antioxidant capacity (TAC) expressed as mg […] equivalent per gram weight, using ascorbic acid at the same concentrations as a standard.

The nature of test [7]: DPPH radical scavenging activity. On the procedure:
as §2
The 1,1-Diphenyl-2-picryl-hydrazyl (DPPH) radical scavenging activity was evaluated using the method described by Rahman et al.[32]. Ascorbic acid was used as a positive control at the same concentrations. The inhibition percentage of the DPPH free radical was calculated. The median inhibitory concentration (IC50) of each tested sample was determined by plotting a curve using a series of sample concentrations against the percentage of DPPH inhibition.
For orientation: Loss of DPPH colour is used to gauge radical scavenging.

The nature of test [8]: ABTS radical scavenging assay. On the procedure:
as §2
The ABTS scavenging capacities of the samples were compared with that of ascorbic acid. The percent inhibition of the ABTS radical was calculated. The IC50 of each tested sample was determined by plotting a curve using a series of sample concentrations against the percent of ABTS inhibition.

The nature of test [9]: Iron reducing power (IRP), method of Oyaizu.

Structures are written as SMILES. Converted amounts (≈) assume the structure as drawn.

For `C[C@H]1O[C@H](O[C@H]2[C@H](O)[C@@H](O)[C@@H](O[C@H]3[C@H](O)[C@@H](O)C(O)O[C@@H]3CO)O[C@@H]2CO)[C@H](O)[C@@H](O)[C@@H]1N[C@H]1C=C(CO)[C@@H](O)[C@H](O)[C@H]1O` (stereo partly drawn) [Acarbose, acarbose, reference compound], the “Change in electrophoretic α-amylase isoenzyme pattern” value in [1] was “complete denaturation”. In test [2], the “Change in electrophoretic α-glucosidase pattern” value is given as “complete denaturation”. Further, the figures for the “α-Amylase Inhibition (%)” value in test [3] (sample concentration 50 µg/mL), in [3] (sample concentration 100 µg/mL) and in test [3] (sample concentration 200 µg/mL) were 21.84 ± 0.08%, 37.12 ± 0.13% and 66.07 ± 0.23%, respectively. The “α-Glucosidase Inhibition (%)” value in test [4] (sample concentration 50 µg/mL) was found to be 17.69 ± 0.08%; in test [4] (sample concentration 100 µg/mL), 29.73 ± 0.13%; in test [4] (sample concentration 200 µg/mL), 52.92 ± 0.23%.
For the compound `O=C1O[C@H]([C@@H](O)CO)C(O)=C1O` [Ascorbic Acid, ascorbic acid, reference compound], in test [5] (Fig. 2a), the “IC50 against NO radical” value is given as 5.17 ± 0.03 µg/mL (≈ 29.4 µM). Moreover, the “NO Inhibition (%)” value was determined as 21.02 ± 0.07% in test [5] (sample concentration 50 µg/mL), 36.27 ± 0.11% in test [5] (sample concentration 100 µg/mL) and 64.55 ± 0.20% in test [5] (sample concentration 200 µg/mL). Moreover, the values for the TAC in test [6] (sample concentration 50 µg/mL), in test [6] (sample concentration 100 µg/mL) and in [6] (sample concentration 200 µg/mL) were 30.09 ± 0.08 mg gallic acid/g, 53.56 ± 0.14 mg gallic acid/g and 95.34 ± 0.25 mg gallic acid/g, respectively. The “IC50 against DPPH radical” value in test [7] (Fig. 2a) was determined as 4.74 ± 0.02 µg/mL (≈ 26.9 µM). Besides, the entries for the “DPPH Inhibition (%)” value in test [7] (sample concentration 50 µg/mL), in test [7] (sample concentration 100 µg/mL) and in test [7] (sample concentration 200 µg/mL) were 26.17 ± 0.07%, 45.43 ± 0.11% and 80.87 ± 0.20%, respectively. Also, the “IC50 against ABTS radical” value in [8] (Fig. 2a) turned out to be 4.17 ± 0.02 µg/mL (≈ 23.7 µM). Further, the results for the “ABTS Inhibition (%)” value in test [8] (sample concentration 50 µg/mL), in [8] (sample concentration 100 µg/mL) and in test [8] (sample concentration 200 µg/mL) were 24.94 ± 0.08%, 42.64 ± 0.13% and 75.90 ± 0.23%, respectively. In addition, the IRP in test [9] (sample concentration 50 µg/mL) is recorded as 23.95 ± 0.07 µg/mL; in test [9] (sample concentration 100 µg/mL) it was 42.64 ± 0.13 µg/mL; in test [9] (sample concentration 200 µg/mL), 75.90 ± 0.23 µg/mL.
In the case of `CC1(C)O[C@H]2CC(=O)OC[C@]23[C@H]2CC[C@@]4(C)[C@H](c5ccoc5)OC(=O)[C@H]5O[C@]54[C@]2(C)C(=O)C[C@@H]13` [Cpd1, limonin], the “NO Inhibition (%)” value worked out at 5.95 ± 0.02% in test [5] (sample concentration 50 µg/mL), 10.60 ± 0.04% in test [5] (sample concentration 100 µg/mL) and 18.87 ± 0.07% in test [5] (sample concentration 200 µg/mL). Moreover, the “Change in electrophoretic α-amylase isoenzyme pattern” value in [1] is reported as “no qualitative or quantitative variations”. Moreover, the “Diff% (physiological difference) of electrophoretic α-amylase pattern from the standard enzyme” value in test [1] was 0.00%. Also, the “SI% (similarity index) of electrophoretic α-amylase pattern to the standard enzyme” value in [1] stood at 100.00%. The figures for the TAC in [6] (sample concentration 50 µg/mL), in [6] (sample concentration 100 µg/mL) and in [6] (sample concentration 200 µg/mL) were 12.77 ± 0.03 mg gallic acid/g, 22.73 ± 0.04 mg gallic acid/g and 40.46 ± 0.08 mg gallic acid/g, respectively. Besides, the “DPPH Inhibition (%)” value in test [7] (sample concentration 50 µg/mL) came out at 11.10 ± 0.02%; in test [7] (sample concentration 100 µg/mL) it was 19.77 ± 0.04%; in test [7] (sample concentration 200 µg/mL), 35.18 ± 0.07%. Moreover, the results for the “ABTS Inhibition (%)” value in test [8] (sample concentration 50 µg/mL), in test [8] (sample concentration 100 µg/mL) and in test [8] (sample concentration 200 µg/mL) were 7.62 ± 0.03%, 13.56 ± 0.04% and 24.14 ± 0.08%, respectively. In test [2], the “Diff% (decrease in the quantity of the identified α-glucosidase band)” value was 3.83%. Besides, the “Qty (band quantity) of the α-glucosidase band” value in [2] is 17.95. Besides, the “α-Amylase Inhibition (%)” value came to 4.52 ± 0.03% in test [3] (sample concentration 50 µg/mL), 8.05 ± 0.04% in test [3] (sample concentration 100 µg/mL) and 14.32 ± 0.08% in test [3] (sample concentration 200 µg/mL). Also, the IRP was 7.62 ± 0.03 µg/mL in test [9] (sample concentration 50 µg/mL), 13.56 ± 0.04 µg/mL in test [9] (sample concentration 100 µg/mL) and 24.14 ± 0.08 µg/mL in test [9] (sample concentration 200 µg/mL). Also, the “α-Glucosidase Inhibition (%)” value in [4] (sample concentration 50 µg/mL) amounted to 1.37 ± 0.03%; in test [4] (sample concentration 100 µg/mL) it was 2.44 ± 0.04%; in test [4] (sample concentration 200 µg/mL), 4.34 ± 0.08%.
On to `CC(=O)O[C@H]1CC(=O)OC(C)(C)[C@@H]2CC(=O)[C@]3(C)[C@H](CC[C@@]4(C)[C@H](c5ccoc5)OC(=O)[C@H]5O[C@]543)[C@@]12C` [Cpd3, nomilin], for which the “NO Inhibition (%)” value in [5] (sample concentration 50 µg/mL) was 6.07 ± 0.02%; in test [5] (sample concentration 100 µg/mL) it was 10.80 ± 0.04%; in test [5] (sample concentration 200 µg/mL), 19.22 ± 0.07%. Further, the “Change in electrophoretic α-amylase isoenzyme pattern” value in [1] is on record as “no qualitative or quantitative variations”. Besides, the “Diff% (physiological difference) of electrophoretic α-amylase pattern from the standard enzyme” value in test [1] worked out at 0.00%. The “SI% (similarity index) of electrophoretic α-amylase pattern to the standard enzyme” value in test [1] is given as 100.00%. For the same compound, the TAC in test [6] (sample concentration 50 µg/mL) is 12.90 ± 0.03 mg gallic acid/g; in test [6] (sample concentration 100 µg/mL), 22.96 ± 0.05 mg gallic acid/g; in test [6] (sample concentration 200 µg/mL), 40.87 ± 0.08 mg gallic acid/g. Besides, the “DPPH Inhibition (%)” value in test [7] (sample concentration 50 µg/mL) was 11.22 ± 0.02%; in test [7] (sample concentration 100 µg/mL) it was 19.96 ± 0.04%; in test [7] (sample concentration 200 µg/mL), 35.53 ± 0.07%. Besides, the “ABTS Inhibition (%)” value was found to be 7.75 ± 0.03% in test [8] (sample concentration 50 µg/mL), 13.79 ± 0.05% in test [8] (sample concentration 100 µg/mL) and 24.55 ± 0.08% in test [8] (sample concentration 200 µg/mL). Further, the “Diff% (decrease in the quantity of the identified α-glucosidase band)” value in [2] is 7.51%. Further, the “Qty (band quantity) of the α-glucosidase band” value in test [2] is 17.26. The “α-Amylase Inhibition (%)” value in test [3] (sample concentration 50 µg/mL) came out at 4.65 ± 0.03%; in [3] (sample concentration 100 µg/mL) it was 8.27 ± 0.05%; in test [3] (sample concentration 200 µg/mL), 14.73 ± 0.08%. In addition, the results for the IRP in [9] (sample concentration 50 µg/mL), in test [9] (sample concentration 100 µg/mL) and in test [9] (sample concentration 200 µg/mL) were 7.75 ± 0.03 µg/mL, 13.79 ± 0.05 µg/mL and 24.55 ± 0.08 µg/mL, respectively. Besides, the “α-Glucosidase Inhibition (%)” value was found to be 1.50 ± 0.03% in [4] (sample concentration 50 µg/mL), 2.67 ± 0.05% in [4] (sample concentration 100 µg/mL) and 4.75 ± 0.08% in test [4] (sample concentration 200 µg/mL).

The values above are taken from PMC11401861, “Assessment of the in vitro anti-diabetic activity with molecular dynamic simulations of limonoids isolated from Adalia lemon peels” (Scientific Reports, 2024).
